Assays:
[1] = Fluorescence correlation spectroscopy (FCS) triplet-state quenching; conditions: Alexa568 in low oxygen
Procedure: Fluorescence correlation spectroscopy (FCS) is a commonly used technique for experimentally characterizing the dynamics of fluorescent species that was initially introduced in the early 1970's (Magde, D., et al, (1972) Phys. Rev. Lett. 29: 705-708). In FCS, light is focused on a sample in a very small detection volume, and the measured fluorescence intensity fluctuations (due to diffusion, physical or chemical reactions, aggregation, etc.) are analyzed using the temporal autocorrelation. Further details are provided, e.g., in Ehrenberg, M. et al. (1974) Chem Phys 4: 390-401; Elson, E. L., et al. (1974) Biopolymers 13: 1-27; Magde, D., et al. (1974) Biopolymers 13: 29-61; Thompson, N. L. (1991) Topics in Fluorescence Spectroscopy Techniques, Vol. 1, ed. J. R. Lakowicz (New York: Plenum) pp. 337-378; Hess, et al. (2002) Biochemistry 41: 697; and Krichevsky, O., et al. (2002) Rep. Prog. Phys. 65: 251-297.
FCS experiments using the fluorophore Alexa568 in low oxygen were used to monitor the amount of the dye triplet state upon excitation over time as a measure of triplet-state quenching by 6-hydroxy-2,5,7,8-tetramethylchroman-2-carboxylic acid and derivatives thereof. Briefly, these experiments were performed on a confocal microscope setup (Olympus IX71 with water-immersion objective UPlanSApo, 60×) using a single line laser excitation (532 nm) at 0.4-mW intensity and two single photon avalanche detectors (SPAD detectors; Perkin Elmer, Waltham, Mass.). The FCS measurements were done in a reaction buffer containing 50 mM ACES, pH 7.1; 75 mM potassium acetate; and 5 mM DTT. A protocatechuic acid/protocatechuate-3,4-dioxygenase (PCA/PCD) oxygen scavenging system (see, e.g., Aitken, et al. (2007) “An Oxygen Scavenging System for Improvement of Dye Stability in Single-Molecule Fluorescence Experiments,” Biophys J. 94:1826-1835) was included, as well. Correlation curves were generated and recorded by a FLEX digital photon correlator (Correlator.com; Bridgewater, N.J.), and analyzed using Origin8.0 (OriginLabs; Northampton, Mass.).
In these experiments, the photo-induced damage mitigating ability of the preparation of photomodified 6-hydroxy-2,5,7,8-tetramethylchroman-2-carboxylic acid (described above), an aged 6-hydroxy-2,5,7,8-tetramethylchroman-2-carboxylic acid solution (stored at −20° C. for ˜1 year), a freshly prepared 6-hydroxy-2,5,7,8-tetramethylchroman-2-carboxylic acid solution (prepared according to manufacturer's instructions), and fresh preparations treated with various UV exposure regimes were compared. The results are plotted as autocorrelation curves in FIG. 9, and the amplitude of the “hump” at around one microsecond (0.001 millisecond (ms)) to a few microseconds indicates the triplet fraction of the dye, so the smaller the amplitude, the better the triplet quencher. […] The aged solution was the second best performer with an autocorrelation amplitude of ˜0.07 at a lag time of 0.001 ms.
The effectiveness of the photomodified solutions and the purified Fraction A and Fraction B as triplet-state quenchers/radical scavengers was tested by fluorescence correlation spectroscopy (FCS) using Alexa568 in low oxygen, as described above in Example 1. Two different intensity of excitation settings, 0.2 mW and 0.4 mW, were used for power dependence.

[2] = Saturation point of solutions for photomodification; format: physicochemical; conditions: solutions subjected to photomodification
Procedure: Of course, the amount of time for UV irradiation and room light exposure can be adjusted, as can the concentration of the 6-hydroxy-2,5,7,8-tetramethylchroman-2-carboxylic acid solution to be treated. For example, one to twenty-four hours of UV irradiation have been employed, as have 18 to 36 hours room light exposure. In general, and as shown in FIG. 9 described above, increasing UV exposures increase the ability of the mixture to effectively mitigate photo-induced damage, although there was no significant difference between the three, six, and 24 hour exposures (FIG. 9). Further, the solutions of 6-hydroxy-2,5,7,8-tetramethylchroman-2-carboxylic acid subjected to photomodification were typically of a concentration of 95-100 mM, which is near the saturation point for the compound. However, treatment of more or less concentrated solutions in contemplated and known chemical methods may be employed to increase the solubility of the compound prior to treatment.

[3] = system: polymerase; experiment: Sequencing-by-incorporation readlength; format: biochemical; conditions: for readlengths compared with 6-hydroxy-2,5,7,8-tetramethylchroman-2-carboxylic acid / no PIDMA: single-molecule, real-time sequencing reactions, FIG. 17; for sequencing readlength: purified fractions, Example 7
From the text: In yet another aspect, the present invention is directed to illuminated reactions for single molecule analysis, including sequencing of nucleic acids by observing incorporation of nucleotides into a nascent nucleic acid sequence during template-directed polymerase-based synthesis. Such methods, generally referred to as “sequencing-by-incorporation,” involve the observation of the addition of nucleotides or nucleotide analogs in a template-dependent fashion in order to determine the sequence of the template strand. See, e.g., U.S. Pat. Nos. 6,780,591, 7,037,687, 7,344,865, 7,302,146, and Eid, et al. (2009) Science 323:133-138, all of which are incorporated herein by reference in their entireties for all purposes. Processes for performing this detection include the use of fluorescently labeled nucleotide analogs within a confined observation region, e.g., within a nanoscale well and/or tethered, either directly or indirectly to a surface, By using excitation illumination (i.e., illumination of an appropriate wavelength to excite the fluorescent label and induce a detectable signal), the fluorescently labeled bases can be detected as they are incorporated into the nascent strand, thus identifying the nature of the incorporated base, and as a result, the complementary base in the template strand.
One particularly preferred aspect of the invention is in conjunction with the sequencing by incorporation of nucleic acids within an optical confinement, such as a zero mode waveguide, Such reactions involve observation of an extremely small reaction volume in which one or only a few polymerase enzymes and their fluorescent substrates may be present. Zero mode waveguides, and their use in sequencing applications are generally described in U.S. Pat. Nos. 6,917,726 and 7,033,764, and preferred methods of sequencing by incorporation are generally described in Published U.S. Patent Application No. 2003-0044781, the full disclosures of which are incorporated herein by reference in their entireties for all purposes, and in particular for their teachings regarding such sequencing applications and methods. Briefly, arrays of zero mode waveguides (“ZMWs”), configured in accordance with the present invention may be employed as optical confinements for single molecule analytical reactions, e.g., for nucleic acid (e.g., DNA, RNA) sequence determination. In particular, as noted above, these ZMWs provide extremely small observation volumes at or near the transparent substrate surface, also termed the “base” of the ZMW. A nucleic acid synthesis complex, e.g., template sequence, polymerase, and primer, which is immobilized at the base of the ZMW, may then be specifically observed during synthesis to monitor incorporation of nucleotides in a template dependent fashion, and thus provide the identity and sequences of nucleotides in the template strand. This identification is typically accomplished by providing detectable label groups, such as fluorescent labeling molecules, on the nucleotides. In some instances, the labeled nucleotides terminate primer extension, allowing a “one base at a time” interrogation of the complex. If, upon exposure to a given labeled base, a base is incorporated, its representative fluorescent signal may be detected at the base of the ZMW. If no signal is detected, then the base was not incorporated and the complex is interrogated with each of the other bases, in turn. Once a base is incorporated, the labeling group is removed, e.g., through the use of a photocleavable linking group, and where the label was not the terminating group, a terminator, upon the 3′ end of the incorporated nucleotide, may be removed prior to subsequent interrogation.
Experiments were performed to test the performance of pure 6-hydroxy-2,5,7,8-tetramethylchroman-2-carboxylic acid against various mixtures of 6-hydroxy-2,5,7,8-tetramethylchroman-2-carboxylic acid and derivatives thereof. […]

[4] = Photolysis of Fraction A to Fraction B under UV, followed by reverse phase HPLC; format: physicochemical
Procedure: Fraction A was further converted to Fraction B by photolysis in a separate experiment. Specifically, purified Fraction A (reverse phase HPLC peak migration time of 9.791 minutes; FIG. 12A) was subjected to UV irradiation in water for one hour to produce Fraction B (reverse phase HPLC peak migration time of 14.891 minutes; FIG. 12B).

[5] = Brightness of Alexa A-647 dye; conditions: purified fractions
[6] = Example 3, FIG. 11A, 0.2 mW intensity of excitation
[7] = Example 3, FIG. 11B, 0.4 mW intensity of excitation

| SMILES | readlengths compared with 6-hydroxy-2,5,7,8-tetramethylchroman-2-carboxylic acid / no PIDMA [3] | autocorrelation amplitude at a lag time of 0.001 ms [1, 6] | autocorrelation amplitude at a lag time of 0.001 ms [1, 7] | brightness of Alexa A-647 dye [5] | sequencing readlength [3] | further results |
| --- | --- | --- | --- | --- | --- | --- |
| Cc1c(C)c2c(c(C)c1O)CCC(C)(C(=O)O)O2 (single isomer, unassigned) [6-hydroxy-2,5,7,8-tetramethylchroman-2-carboxylic acid, reference compound] | surprisingly similar to having no PIDMA present at all | – | – | – | – | autocorrelation amplitude at a lag time of 0.001 ms ([1]; Example 1, FIG. 9, 532 nm, 0.4 mW, smaller amplitude = better triplet quencher): ~0.2; concentration near the saturation point [2]: 95000 to 100000 µM; proportion of sequencing reactions that attained a readlength of at least one-fifth the maximum ([3]; 0.5 mM, FIG. 13): about 10%; proportion of sequencing reactions that attained a readlength of at least one-tenth of the maximum readlength ([3]; 0.5 mM, FIG. 13): 60%; sequencing reactions that attained a readlength of at least 30% of the maximum ([3]; 0.5 mM, FIG. 13): very few |
| CC1=C(C)C(=O)C(CCC(C)(O)C(=O)O)=C(C)C1=O (single isomer, unassigned) [Fraction A, 2-hydroxy-2-methyl-4-(2,4,5-trimethyl-3,6-dioxocyclohexa-1,4-dienyl)butanoic acid] | to a lesser extent | ~0.065 | ~0.043 | – | – | conversion from Fraction A to Fraction B ([4]; UV irradiation in water for one hour): 80%; time until conversion is essentially complete ([4]; under a portable UV lamp): about four; half-life ([4]; water under UV irradiation, UV irradiation in water, read-out: half-life of conversion to Fraction B): 26 min; readlength compared with fresh 6-hydroxy-2,5,7,8-tetramethylchroman-2-carboxylic acid ([3]; 0.05 mM purified Fraction A with 0.5 mM 6-hydroxy-2,5,7,8-tetramethylchroman-2-carboxylic acid, FIG. 13): much longer readlengths; readlength compared with fresh 6-hydroxy-2,5,7,8-tetramethylchroman-2-carboxylic acid ([3]; 0.10 mM purified Fraction A with 0.5 mM 6-hydroxy-2,5,7,8-tetramethylchroman-2-carboxylic acid, FIG. 13): much longer readlengths; readlength compared with fresh 6-hydroxy-2,5,7,8-tetramethylchroman-2-carboxylic acid ([3]; 0.25 mM purified Fraction A with 0.5 mM 6-hydroxy-2,5,7,8-tetramethylchroman-2-carboxylic acid, FIG. 13): much longer readlengths |
| CC(=O)CCC1=C(C)C(=O)C(C)=C(C)C1=O (single isomer, unassigned) [Fraction B, 2,3,5-trimethyl-6-(3-oxobutyl)-1,4-benzoquinone] | – | ~0.06 | ~0.04 | – | – | – |
| CC1=C(C)C(=O)C2(CCC(C)(C(=O)O)O2)C(C)(O)C1=O (single isomer, unassigned) [fraction 5, 10-hydroxy-2,7,8,10-tetramethyl-6,9-dioxo-1-oxaspiro[4.5]dec-7-ene-2-carboxylic acid] | longer readlengths | – | – | increase the brightness | significantly increase sequencing readlength | – |
| CC1=C(C)C(=O)C2(CCC(C)(C(=O)O)O2)C(C)(O)C1=O (single isomer, unassigned) [fraction 7, 10-hydroxy-2,7,8,10-tetramethyl-6,9-dioxo-1-oxaspiro[4.5]dec-7-ene-2-carboxylic acid] | longer readlengths | – | – | increase the brightness | significantly increase sequencing readlength | – |

Source: patent US8388982B2, “Photo-induced damage mitigating agents and preparation and methods of use thereof” (priority 2008, dated 2013)
